From PMC3597028 (Disease Models & Mechanisms, 2012)

Target: PAD2 (peptidylarginine deiminase 2) (Homo sapiens, UniProt Q9Y2J8)
Type: biochemical

Chain of PAD2 (peptidylarginine deiminase 2) (Q9Y2J8 whole entry): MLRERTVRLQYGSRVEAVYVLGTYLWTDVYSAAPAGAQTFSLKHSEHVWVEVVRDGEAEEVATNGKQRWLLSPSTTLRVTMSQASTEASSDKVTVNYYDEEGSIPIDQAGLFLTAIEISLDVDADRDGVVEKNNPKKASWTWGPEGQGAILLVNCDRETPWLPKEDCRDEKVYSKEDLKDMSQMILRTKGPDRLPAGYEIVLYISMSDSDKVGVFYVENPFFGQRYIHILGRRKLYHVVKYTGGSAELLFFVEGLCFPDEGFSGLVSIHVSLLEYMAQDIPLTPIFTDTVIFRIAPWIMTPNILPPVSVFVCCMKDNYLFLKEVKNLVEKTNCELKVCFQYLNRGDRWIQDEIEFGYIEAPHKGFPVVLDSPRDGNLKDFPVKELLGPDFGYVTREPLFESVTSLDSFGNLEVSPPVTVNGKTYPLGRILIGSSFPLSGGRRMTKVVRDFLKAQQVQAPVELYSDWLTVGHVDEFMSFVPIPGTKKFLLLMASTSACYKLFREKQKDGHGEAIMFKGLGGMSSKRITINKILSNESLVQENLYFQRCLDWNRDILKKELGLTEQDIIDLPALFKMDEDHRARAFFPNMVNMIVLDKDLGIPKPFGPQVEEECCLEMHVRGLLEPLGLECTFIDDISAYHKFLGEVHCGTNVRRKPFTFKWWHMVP

`N=C(N)CCl` [2CA, 2-chloroacetamidine] was tested, and the IC50 was 14.4 mM.
